Experimental data reported in patent US20190054070A1, “Methods and Compositions for Regenerative Synaptogenesis” (priority 2017, published 2019).

Legend:
[1] = system: HuD-mRNA binding; conditions: hippocampal neurons in vitro; previous studies (ref. 22); cited from earlier work
[2] = system: cultured hippocampal neurons; test: Dendritic spine morphology of GFP-Actin transfected neurons by confocal microscopy; type: cell-based, rat; conditions: for spine head width: untreated 0.753±0.038 μm; for spine length: untreated 1.819±0.064 μm; for spine density: untreated 4.58±0.43
Experimental: (§1) Cultures of dissociated hippocampal neurons from embryonic day 18 rats were prepared as previously described (51). Cultured neurons at 10 days in vitro (DIV) were exposed to arginine N-methyltransferase inhibitor-1 (AMI-1; 2.5 or 10 μM, Enzo Life Sciences) in plating media minus additional glutamate for the indicated times.
(§2) To identify the effects of genetic knock-down of CARM1 on dendritic morphology and synaptic clustering of synapsin, NR2B, and PSD-95, hippocampal neurons were first transfected with the construct pCAG-mGFP-Actin [a gift from Ryohei Yasuda (Addgene plasmid #21948)] at 7 DIV with Lipofectamine 2000 (Invitrogen) following the manufacturer's protocol. After a 2-day incubation, neurons were untreated or transduced with rat CARM1- or PRMT1-specific siRNA or scrambled control siRNA lentiviral particles (5×10^3 viral particles/μl, Santa Cruz) at a multiplicity of infection (MOI) of 4 to ensure efficient infection following the manufacturer's protocol, followed by overnight incubation. After a media change with plating media minus glutamate, cells were incubated for an additional 4 days, and then a portion of the cells was either lysed and used for total RNA isolation and RT-qPCR experiments, lysed and used for immunoblot analysis, or fixed for immunocytochemical analysis.
(§3) Cultures neurons were treated as described above and then fixed in 2% paraformaldehyde/4% sucrose/PBS for 10 min at room temperature (RT) followed by methanol for 20 min at −20° C. The fixed neurons were incubated in preblock buffer (20 mM phosphate buffer, pH 7.4, 5% normal goat serum, 0.05% Triton X-100, and 450 mM NaCl) at 4° C. overnight with the following primary antibodies: mouse anti-CARM1 (1:200, Cell Signaling), rabbit anti-CARM1 (1:200, Cell Signaling), rabbit anti-NR2B (1:200, Millipore), mouse anti-NR2B (1:150, Thermo Fisher), mouse anti-PSD-95 (1:100, Cell Signaling), mouse anti-synapsin (1:200, Santa Cruz), or rabbit anti-synapsin (1:250, Millipore), followed by incubation with the appropriate secondary antibodies (Alexa 488-anti-rabbit or 546-anti-mouse; each at 1:1000, Invitrogen) in preblock buffer at RT for 1 hr. After immunostaining, the cells were mounted as previously described (50) and viewed on a Zeiss LSM 710 laser-scanning confocal microscope. Images were acquired under a 63× or 100× oil immersion objective lens and scanned for further analysis.
(§4) Confocal microscope images for each treatment from each of 3 independent sets of experiments were imported into Image J (NIH) software. To determine the proportion of CARM1 signal that co-localizes with PSD-95 or synapsin, Image J (NIH) software was used with Just Another Colocalization (JACoP) plugin set. A Mander's coefficient was calculated and the average value (N=10) was further analyzed. Dendritic spine length (from dendritic shaft to the top of spine head) and dendritic spine width (diameter of the widest part of spine head) were measured and dendritic spine density (number of spines/10 μm of dendrite) was also counted. Dendritic spine shape (stubby, mushroom, or filopodium) was identified as described in previous research (5, 21). After measuring spine length (the distance from the base of the neck to the furthest point on the spine heads) and diameter of spine head and neck, the ratio from each spine was calculated and compared. […] Mushroom spines were judged if the diameter of the head was three times larger than the diameter of their necks. Stubby spines were judged if the diameter of the neck was similar to the total length of the spine.

[3] = system: cultured hippocampal neurons; test: Synaptic clustering of NR2B, PSD-95 and synapsin by immunocytochemistry; type: cell-based, rat; conditions: 10 μM for 4 days from 10 DIV; compared to untreated cells
Experimental: as §1, §2, §3, §4

[4] = inhibitor treatment for 4 days, compared with untreated

For `O=C(Nc1ccc2c([O-])cc(S(=O)(=O)[O-])cc2c1)Nc1ccc2c([O-])cc(S(=O)(=O)[O-])cc2c1.[Na+].[Na+].[Na+].[Na+]` [AMI-1, 7,7′-(carbonylbis(azanediyl))bis(4-oxidonaphthalene-2-sulfonate), sodium salt], the “HuD-mRNA binding and the stability and expression of NTFs, including BDNF” value [1] is listed as “increased”, the spine head width ([2]; 2.5 μM for 4 days from 10 DIV) is listed as 0.899±0.052 μm and the spine length ([2]; 2.5 μM for 4 days from 10 DIV) is listed as 1.748±0.093 μm. It also gave a spine density ([2]; 2.5 μM for 4 days from 10 DIV) of 4.49±0.54 spines per 10 μm dendrite, a spine head width ([2]; 10 μM for 4 days from 10 DIV, P=0.0085) of 0.982±0.044 μm and a spine length ([2]; 10 μM for 4 days from 10 DIV, not statistically significant) of 1.634±0.072 μm. The spine density ([2]; 10 μM for 4 days from 10 DIV, no significant difference) was 5.54±0.62 spines per 10 μm dendrite, the “proportion of filopodia-type, including thin-type, spines” value [2, 4] was “dramatic decrease” and the “proportion of mushroom-type spines” value [2, 4] was “significantly increased”. For the same compound, the “NR2B number of clusters” value [3] was “increase”, the “NR2B synaptic cluster size” value [3] was “increase” and the “PSD-95 number of clusters” value [3] was “increase”. For the same compound, the “PSD-95 synaptic cluster size” value [3] was “increase”, the “synapsin synaptic cluster number” value [3] was “no difference” and the “synapsin synaptic cluster size” value [3] was “no difference”.
